The target in the assay is T1, BcXyl (β-xylosidase, anthocyanin-β-glycosidase) (Brunfelsia pauciflora, UniProt A0A6G5NV63).
T1 construct: gene xyl; native purification from stage 2 petals (ammonium sulfate, DEAE, CM); about 72 kDa on SDS-PAGE; cDNA codes for 786 aa with predicted signal peptide 1-27; MS/MS peptides AVSNNFATLMR, LPMTWYPQSYADK, VTQQDLDDTFNPPFK, HYTAYDIDDWK, YEWWSEALHGISYTGPGVK
T1 sequence (A0A6G5NV63 28-785 limits assumed): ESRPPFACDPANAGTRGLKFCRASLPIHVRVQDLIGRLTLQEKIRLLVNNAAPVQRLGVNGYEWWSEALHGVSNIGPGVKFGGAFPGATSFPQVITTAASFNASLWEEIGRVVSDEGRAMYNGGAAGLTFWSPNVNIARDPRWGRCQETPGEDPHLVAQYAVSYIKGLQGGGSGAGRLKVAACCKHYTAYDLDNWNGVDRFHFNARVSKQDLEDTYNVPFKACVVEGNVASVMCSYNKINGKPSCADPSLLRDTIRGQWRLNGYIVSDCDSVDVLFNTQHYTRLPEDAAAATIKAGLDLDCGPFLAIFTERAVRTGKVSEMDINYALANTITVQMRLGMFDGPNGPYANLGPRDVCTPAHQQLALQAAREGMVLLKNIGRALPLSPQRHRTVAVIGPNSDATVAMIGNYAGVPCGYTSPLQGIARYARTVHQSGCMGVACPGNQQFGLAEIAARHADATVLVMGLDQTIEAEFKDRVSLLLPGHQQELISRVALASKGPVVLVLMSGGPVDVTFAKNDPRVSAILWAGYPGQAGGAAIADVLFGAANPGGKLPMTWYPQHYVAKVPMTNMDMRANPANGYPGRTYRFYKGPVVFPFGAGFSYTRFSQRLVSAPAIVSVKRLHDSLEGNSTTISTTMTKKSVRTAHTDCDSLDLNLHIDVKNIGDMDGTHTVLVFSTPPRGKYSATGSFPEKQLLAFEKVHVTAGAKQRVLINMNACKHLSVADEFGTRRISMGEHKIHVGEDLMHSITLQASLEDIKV
Briefly: p-nitrophenol release at […] nm. As to conditions: read-out: Residual Activity (%). It counts as biochemical.

With `O=C(O)[C@H](O)[C@@H](O)[C@H](O)[C@H](O)CO` [D-gluconic acid], the remaining activity at 1000 µM was found to be 13.2 ± 0.69%.
